Assay results reported in patent US20060069132A1, “Azolecarboxamide herbicides” (priority 2004, published 2006).

How the values were obtained:
[1] = system: barnyardgrass; assay: Test B flooded paddy test; format: in vivo, Echinochloa crus-galli; details: 1000 g ai/ha, scale 0 to 100 (0 no effect, 100 complete control)
Procedure, shortened: (§1)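 Visual control ratings, 0–100 versus untreated controls, taken after 13 to 15 days in the greenhouse. Blackgrass received a postemergence spray at the 1- to 4-leaf stage (2–18 cm); ducksalad, umbrella sedge and barnyardgrass were flooded-paddy treated at 2 leaves.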

[2] = system: cocklebur; assay: Test C pre-/postemergence herbicide test; format: in vivo, Xanthium strumarium
Description: (§2) Seeds of plant species selected from bermudagrass (Cynodon dactylon (L.) Pers.), Surinam grass (Urochloa decumbens (Staph) R. D. Webster, previously named Brachiaria decumbens Stapf), cocklebur (Xanthium strumarium L.), corn (Zea mays L.), large crabgrass (Digitaria sanguinalis (L.) Scop.), woolly cupgrass (Eriochloa villosa (Thunb.) Kunth), giant foxtail (Setaria faberi Herrm.), goosegrass (Eleusine indica (L.) Gaertn.), johnsongrass (Sorghum halepense (L.) Pers.), kochia (Kochia scoparia (L.) Schrad.), lambsquarters (Chenopodium album L.), morningglory (Ipomoea coccinea L.), eastern black nightshade (Solanum ptycanthum Dunal), yellow nutsedge (Cyperus esculentus L.), pigweed (Amaranthus retroflexus L.), common ragweed (Ambrosia elatior L.), soybean (Glycine max (L.) Merr.), common (oilseed) sunflower (Helianthus annuus L.) and velvetleaf (Abutilon theophrasti Medik.) were planted and treated preemergence with test chemicals formulated in a non-phytotoxic solvent mixture which included a surfactant.
(§3) At the same time, plants selected from these crop and weed species and also winter barley (Hordeum vulgare L.), blackgrass (Alopecurus myosuroides Huds.), canarygrass (Phalaris minor Retz.), chickweed (Stellaria media (L.) Vill.), downy bromegrass (Bromus tectorum L.), green foxtail (Setaria viridis (L.) Beauv.), Italian ryegrass (Lolium multiflorum Lam.), wheat (Triticum aestivum L.), wild oat (Avenafatua L.) and windgrass (Apera spica-venti (L.) Beauv.) were treated with postemergence applications of some of the test chemicals formulated in the same manner. Plants ranged in height from 2 to 18 cm (1- to 4-leaf stage) for postemergence treatments. Plant species in the flooded paddy test consisted of rice (Oryza sativa), smallflower umbrella sedge (Cyperus difformis L.), ducksalad (Heteranthera limosa (Sw.) Willd.) and barnyardgrass (Echinochloa crus-galli (L.) Beauv.) grown to the 2-leaf stage for testing. Treated plants and controls were maintained in a greenhouse for 12 to 14 days, after which time all species were compared to controls and visually evaluated. Plant response ratings, summarized in Table C, are based on a scale of 0 to 100 where 0 is no effect and 100 is complete control. A dash (-) response means no test result.

[3] = system: ducksalad; assay: Test B flooded paddy test; format: in vivo, Heteranthera limosa; details: 1000 g ai/ha, scale 0 to 100 (0 no effect, 100 complete control)
Procedure, shortened: as §1

[4] = system: corn; assay: Test C pre-/postemergence herbicide test; format: in vivo, Zea mays
Description: as §2, §3

[5] = system: goosegrass; assay: Test C pre-/postemergence herbicide test; format: in vivo, Eleusine indica
Description: as §2, §3

[6] = system: rice; assay: Test B flooded paddy test; format: in vivo, Oryza sativa; details: 1000 g ai/ha, scale 0 to 100 (0 no effect, 100 complete control)
Procedure, shortened: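 Read-out: visual comparison with controls, scored 0 to 100, where 100 means complete control and 0 no effect. Formulated chemicals were applied postemergence to plants 2–18 cm tall (1- to 4-leaf), or to flooded-paddy plants at the 2-leaf stage, then held 13 to 15 days under glass.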

[7] = system: lambsquarters; assay: Test C pre-/postemergence herbicide test; format: in vivo, Chenopodium album
Description: as §2, §3

[8] = system: velvetleaf; assay: Test C pre-/postemergence herbicide test; format: in vivo, Abutilon theophrasti
Description: as §2, §3

[9] = system: johnsongrass; assay: Test C pre-/postemergence herbicide test; format: in vivo, Sorghum halepense
Description: as §2, §3

[10] = system: ducksalad; assay: Test C flooded paddy test; format: in vivo, Heteranthera limosa
[11] = system: smallflower umbrella sedge; assay: Test C flooded paddy test; format: in vivo, Cyperus difformis
[12] = Postemergence, 250 g ai/ha, scale 0 to 100, 0 no effect, 100 complete control
[13] = Postemergence, 500 g ai/ha, scale 0 to 100, 0 no effect, 100 complete control
[14] = postemergence, 125 g ai/ha, scale 0 to 100
[15] = postemergence, 62 g ai/ha, scale 0 to 100
[16] = 250 g ai/ha, scale of 0 to 100, 0 is no effect, 100 is complete control
[17] = 500 g ai/ha, visual rating after 12 to 14 days, scale 0 to 100 (0 no effect, 100 complete control)
[18] = 62 g ai/ha, preemergence, scale 0 to 100
[19] = 250 g ai/ha, scale 0-100, preemergence
[20] = 500 g ai/ha, scale 0 to 100 (0 no effect, 100 complete control), visual, 12 to 14 days, preemergence

## CCn1nc(C(C)(C)C)cc1C(=O)Nc1cc(OC(F)(F)F)ccc1F [Compound 338]
[1]
  Barnyardgrass plant response rating: 40
[2]; [12]
  Plant response rating, Cocklebur: 5
[2]; [13]
  Plant response rating, Cocklebur: 5
[2]; [14]
  Plant response rating, Cocklebur: 0
[2]; [15]
  Plant response rating, Cocklebur: 0
[3]
  Ducksalad plant response rating: 60
[4]; [12]
  Plant response rating, Corn: 10
[4]; [13]
  Plant response rating, Corn: 10
[4]; [14]
  Plant response rating, Corn: 0
[4]; [15]
  Plant response rating, Corn: 0
[5]; [12]
  Plant response rating, Goosegrass: 10
[5]; [13]
  Plant response rating, Goosegrass: 10
[5]; [14]
  Plant response rating, Goosegrass: 5
[5]; [15]
  Plant response rating, Goosegrass: 0
[6]
  Rice plant response rating: 30
[7]; [12]
  Plant response rating, Lambsquarters: 75
[7]; [13]
  Plant response rating, Lambsquarters: 75
[7]; [14]
  Plant response rating, Lambsquarters: 5
[7]; [15]
  Plant response rating, Lambsquarters: 0
[8]; [12]
  Plant response rating, Velvetleaf: 40
[8]; [13]
  Plant response rating, Velvetleaf: 80
[8]; [14]
  Plant response rating, Velvetleaf: 0
[8]; [15]
  Plant response rating, Velvetleaf: 0
[9]; [12]
  Plant response rating, Johnsongrass: 0
[9]; [13]
  Plant response rating, Johnsongrass: 0
[9]; [14]
  Plant response rating, Johnsongrass: 0
[9]; [15]
  Plant response rating, Johnsongrass: 0

## CCc1nn(C(C)C)nc1C(=O)Nc1cccc(C(=O)N2CCCCC2)c1 [Compound 385]
[1]
  Barnyardgrass plant response rating: 80
[10]; 62 g ai/ha, scale 0 to 100
  Ducksalad plant response rating: 0
[10]; [16]
  Ducksalad plant response rating: 70
[10]; [17]
  Plant response rating, Ducksalad: 75
[2]; [18]
  Plant response rating, Cocklebur: 0
[2]; 125 g ai/ha, preemergence
  Plant response rating (0 = no effect, 100 = complete control), Cocklebur: 0
[2]; [19]
  Plant response rating, Cocklebur: 100
[2]; [20]
  Plant response rating, Cocklebur: 100
[3]
  Ducksalad plant response rating: 80
[4]; [18]
  Plant response rating, Corn: 0
[5]; [18]
  Plant response rating, Goosegrass: 70
[5]; 125 g ai/ha, preemergence
  Plant response rating (0 = no effect, 100 = complete control), Goosegrass: 80
[5]; [19]
  Plant response rating, Goosegrass: 95
[5]; [20]
  Plant response rating, Goosegrass: 100
[6]
  Rice plant response rating: 80
[7]; [18]
  Plant response rating, Lambsquarters: 75
[7]; 125 g ai/ha, preemergence
  Plant response rating (0 = no effect, 100 = complete control), Lambsquarters: 100
[7]; [19]
  Plant response rating, Lambsquarters: 100
[7]; [20]
  Plant response rating, Lambsquarters: 100
[11]; 62 g ai/ha, scale 0 to 100
  Sedge, Umbrella plant response rating: 75
[11]; 125 g ai/ha, scale 0 to 100 (0 no effect, 100 complete control)
  Sedge, Umbrella plant response rating: 75
[11]; [16]
  Sedge, Umbrella plant response rating: 80
[11]; [17]
  Plant response rating, Sedge, Umbrella: 85
[8]; [18]
  Plant response rating, Velvetleaf: 50
[8]; 125 g ai/ha, preemergence
  Plant response rating (0 = no effect, 100 = complete control), Velvetleaf: 85
[8]; [19]
  Plant response rating, Velvetleaf: 100
[8]; [20]
  Plant response rating, Velvetleaf: 100
[9]; [18]
  Plant response rating, Johnsongrass: 80
[9]; 125 g ai/ha, preemergence
  Plant response rating (0 = no effect, 100 = complete control), Johnsongrass: 95
[9]; [19]
  Plant response rating, Johnsongrass: 100
[9]; [20]
  Plant response rating, Johnsongrass: 100
